Measurements as given in patent publication US11311632B2, “Viral vectors for prophylaxis and therapy of hemoglobinopathies” (Cornell University, priority 2015, dated 2022).
Where two headings read alike, the source gives them in different places.

Assays:
[1] = tested on: CD34+-derived SCD erythroid cells; assay: Hemoglobin (HbF, HbS, HbA2) content by HPLC in differentiated CD34+-derived SCD erythroid cells; type: cell-based, human
Text: To obtain the data presented here, we used the lentiviral vector pCL-ZF-Ldb1, (FIG. 11, top vector map), which carries a zinc-finger protein that specifically binds the γ-globin promoters, fused to the self-association (SA) domain of Ldb1, as well as a green fluorescent protein under the control of the erythroid specific ankyrin promoter. […] Cell, 2014. 158(4): p. 849-60].
In particular, we analyzed the mRNA and protein content of erythroblasts derived from 10 SCD subjects. CD34+ cells isolated from peripheral blood mononuclear cells (PBMCs) were frozen and used for independent replicate experiments. Infection with pCL-ZF-Ldb1 was performed on pro-erythroblast within the first 10 days of the expansion phase.
A scheme of the experimental procedures is illustrated in FIG. 16. […] Exp Hematol, 2005. 33(12): p. […] J Clin Invest, 2008. 118(1): p. […] Nat Med, 2013. 19(3): p. 291-4]. Studies were performed on day 8 of differentiation phase, at the orthochromatophilic stage when high amounts of hemoglobin were accumulated.
(§1) CD34+ cells selection from blood samples was performed by immunomagnetic separation, using the CD34 microbeads kit (Miltenyi Biotec Inc., Auburn, Calif.). These cells were then expanded following a modified version of the protocol described by Leberbauer and colleagues. Cells were seeded in 5 mL of serum-free StemSpan with 50 μL of StemSpan CC-100 cytokine cocktail (both from Stemcell Technologies, Vancouver, BA, Canada), 2 U/mL Erytrhopoietin (Amgen, Thousand Oaks, Calif.), 10^-6 M dexamethasone (Sigma) and 1% penicillin streptomycin. CD34+ cultures were kept undifferentiated by refreshing the medium twice a week and density gradient centrifugation was used to remove both dead and spontaneously differentiating cells. At this stage cells were either frozen (with 50% characterized Hyclone FBS, 10% DMSO, Sigma, and 40% Iscove's Modified DMEM, Cellgro), or used for experiments. After 10 days in phase I, cells were transferred into phase II media containing α-modified essential medium supplemented with 30% fetal calf serum and 10^-5 M β-mercaptoethanol. Erythropoietin was added (5 U/mL) to stimulate erythroid differentiation.

SCD erythroblasts = assay: Erythroid cell count / viability (benzidine+ cells) of treated SCD erythroblasts; details: same treatments and doses as HbF induction comparison
Protocol: as §1

[2] = SCD erythroid cells, summary in description
[3] = day 8 of differentiation, same treatments and doses as net HbF increase

| SMILES | induction of HbF (qualitative summary) [1] | net HbF increase [1] | net HbS decrease [1] | viability compared to untreated samples (SCD erythroblasts) | induction of HbF (qualitative summary) [1, 2] | net HbS decrease [1, 3] | net HbS decrease ([1]; 192 h) | net HbF increase ([1]; 192 h, 30 µM) |
| --- | --- | --- | --- | --- | --- | --- | --- | --- |
| N[C@@H]1C[C@H]1c1ccccc1 (racemic) [tranyl-cypromine, tranylcypromine] | intermediate effect | 8.08%±6.28 | −6.93%±6.64 |  |  |  |  |  |
| CCCC(=O)[O-].[Na+] [butyrate, sodium butyrate] |  | 4.84%±5.03 |  | reduced viability | marginal HbF induction | −4.90%±7.94 |  |  |
| NC(=O)NO [hydroxyurea] |  |  |  | reduced viability | marginal HbF induction | −3.48%±4.68 |  |  |
| Nc1cccc2c1C(=O)N(C1CCC(=O)NC1=O)C2=O (stereo not shown) [pomalidomide] |  |  |  | reduced viability |  |  | 11.61−%±9.27 | 11.84%±9.02 |
